Assay results reported in article PMC9496346, “Controversial Role of Transferrin in the Transport of Ruthenium Anticancer Drugs” (Biomolecules, 2022).

Legend:
[1] = tested on: T1, recombinant human transferrin receptor 1 (TfR1); experiment: BLI of Tf–TfR1 binding in dilute cell culture media after uptake experiments; details: apoTf 30 μM + KP1019 60 μM in DMEM with ~15 μM BSA, vs same medium with apoTf only
T1 construct: extracellular domain (Cyst89-Phe760), (His)6-tagged at the N-terminus; purchased Sino Biological, Beijing, China (TfR1)
Method: The effects of Ru complexes on the Tf cycle were determined by BLI using previously developed protocols. The instrument used was a single-channel BLItz analyser (ForteBio, Menlo Park, CA, USA) with a tube holder (250 µL solution volume) and Ni(II)–nta coated optical probes held at 295 ± 1 K. Measurements used the Advanced Kinetics mode. […] Solutions of metal–Tf adducts (typical final Tf concentrations 150 nM or 1.0 µM) were prepared in the binding buffer (Section 2.1). The pH 7.4 binding buffer was used for Tf binding and dissociation from the probe, and the pH 5.6 buffer (Section 2.1) was used to mimic the endosomal step of the Tf cycle. Metal–Tf solutions (A1–A9 in Table 1) were diluted 100–400-fold, cell culture media were diluted 30-fold, and human serum samples were diluted 200-fold with the binding buffer immediately before the BLI measurements. All BLI data were background corrected by using data from buffer only runs with the same TfR1-loaded optical probe. Consistent BLI results were obtained in at least two independent measurements, using different probes and different batches of Tf solutions. Calculations of the Tf–TfR1 binding constants were performed using the 1:1 binding model (BLItz software, Version 1.1, Forte-Bio 2013), which can be used as a reasonable approximation of the physiological 2:2 Tf–TfR1 binding mechanism at low Tf concentrations.
(a) BLI response curves for 1.0 µM of human Tf at 295 K in dilute cell culture media after Ru uptake experiments by HepG2 cells (Section 3.2 in the main text). Media (serum-free DMEM, containing 1.0 mg mL−1 BSA as a background protein, as well as KP1019 and/or Tf, as shown in the figure legend), were collected after the end of uptake experiments, then were diluted 30-fold with buffer (20 mM HEPES + 25 mM NaHCO3 + 140 mM NaCl, pH = 7.4) and applied to TfR1-loaded BLI probe. Designations of the steps in Tf cycle (A–D) correspond to those in Figure 1d-f, main text. Calculated KD values (1:1 binding model, BLItz software) were as […]

[2] = Decomposition of KP1019 in cell culture medium; format: in vitro ADME; details: 310 K; reported previously and confirmed in this work

[Cl-].[Cl-].[Cl-].[Cl-].[Ru+3].c1ccc2[nH][nH+]cc2c1.c1ccc2[nH]ncc2c1.c1ccc2[nH]ncc2c1 [KP1019, (IndH)[Ru^IIICl4(Ind)2]]
Effect on Tf–TfR1 binding in cell culture medium [1]: did not have a major effect
Decomposition in cell culture medium (time) [2]: within several hours
